In one test the test system is MDA-MB-231 cells. Put plainly: Breast-cancer-on-chip culture, time-lapse imaging analysed with STAMP (apoptosis rate, Pdeath). It counts as cell-based. Particulars: 1 µM doxorubicin. The method, then:
Cell cultures The MDA-MB-231 cell line, from triple negative breast cancer, was cultured in high-glucose DMEM (GE Healthcare, #SH30081.01) supplemented with 10% fetal bovine serum (Biosera), 1% Penicillin/Streptomycin (Gibco), 1% glutamine (Gibco). The IGR-Pub lung adenocarcinoma cells and the autologous T cells P62 were harvested from the same patient in Institut Gustave Roussy. The IGR-Pub cells were cultured in DMEM F12 (GIBCO) supplemented with 10% fetal bovine serum (Biosera), 1% of Ultroser G (Pall), 1% of Sodium Pyruvate (Gibco) and 1% Penicillin/Streptomycin (GIBCO). P62 T cells were cultured in RPMI-1640 (GE Healthcare) supplemented with 10% human AB serum (Institut Jacques Boy, Reims, France), rIL-2 (20 U/ml, Gibco), 1% of Sodium Pyruvate (Gibco) and 0.1% Penicillin/Streptomycin (Gibco). Primary cancer-associated fibroblasts (CAFs) were isolated and cultured as previously reported. All cell lines were periodically tested to exclude mycoplasma contamination using a qPCR-based method (VenorGem Classic, BioValley, #11-1250). The MDA-MB-231 cell line was authenticated by SRT profiling (GenePrint 10 system, Promega, #B9510). Doxorubicin was purchased from Teva pharmaceuticals (200 mg/ml).
Tumor-on-chip preparation The microfluidic devices were purchased from AIM-Biotech (#DAX-1). Cells were seeded in the central chamber of the DAX-1 chips embedded in a matrix composed of type I rat tail collagen (Thermofisher, #A1048301) at the final concentration of 2.3 mg/ml. Cancer cells were seeded in the gel at a final density of 2×10^6 cells/ml. Autologous T cells were added at final densities of 0.2×10^6 to 2×10^6 cells/ml in order to obtain different ratios (from 10:1 to 1:1) between cancer and T cells. Primary CAFs were added at cancer:CAF 6:1 ratio. The microfluidic devices were incubated for 30 min at 37° C. in a humidified chamber to allow the polymerization of the collagen solution; afterwards, 120 µl of culture medium were added in each lateral chamber. MDA-MB-231 cells in chip were cultured in the same medium used for dish 2D culture, whereas the IGR-Pub/P62 cells co-cultures were cultured in T-cell medium, supplemented with rIL-2 (10 U/ml, GIBCO, #PHC0027). After the addition of the medium, the microfluidic devices were kept for 1 hour in the incubator before transfer to the incubating chamber of the microscope for imaging.
Cell staining Cancer cells were labeled with CellTrace™ Yellow (Thermofisher, #C34567) before seeding in the gel, for the detection in the so-called “red channel” of fluorescence. […] CellTrace™ exists in 4 colours so up to 5 different cell populations could potentially be analysed separately (4 colours + unstained) by staining the cells prior to mixing. […]

Test [1] concerns MDA-MB-231 cells co-cultured with CAFs. The experiment in a line: Breast-cancer-on-chip co-culture with cancer-associated fibroblasts, STAMP apoptosis rate. It is filed as cell-based. Conditions: 1 µM doxorubicin, 6:1 cancer:CAF ratio, TLAG = 4 h, 68 hrs. As to the method:
MDA-MB-231 cancer cells were co-cultured on-chip +/- cancer-associated fibroblasts (CAFs) and +/- doxorubicin (1 µM) treatment. Final CAF:cancer ratio was 1:6. […] The data are the means of 3 measurements coming from 3 videos of the same experiment (+/- SEM). The data illustrating the MDA-MB-231 without CAFs conditions come from the same videos analyzed for FIG. 4 but with different time-interval resolution.
Cell cultures The MDA-MB-231 cell line, from triple negative breast cancer, was cultured in high-glucose DMEM (GE Healthcare, #SH30081.01) supplemented with 10% fetal bovine serum (Biosera), 1% Penicillin/Streptomycin (Gibco), 1% glutamine (Gibco). The IGR-Pub lung adenocarcinoma cells and the autologous T cells P62 were harvested from the same patient in Institut Gustave Roussy. […]
Having established that the STAMP method accurately monitors cancer death within co-cultures of cancer and T cells, we moved to bi-cultures of cancer cells and cancer-associated fibroblasts (CAFs). […] Since it is well established that CAFs contribute to chemoresistance in various cancer types, by co-culturing primary breast CAFs with the breast cancer MDA-MB-231 cells, we assessed the capacity of ToC to recapitulate the CAF impact on doxorubicin resistance ex vivo.

For the molecule `COc1cccc2c1C(=O)c1c(O)c3c(c(O)c1C2=O)C[C@@](O)(C(=O)CO)C[C@@H]3O[C@H]1C[C@H](N)[C@H](O)[C@H](C)O1` [doxorubicin], in the test with MDA-MB-231 cells (3D on-chip (FIG. 4C, right)), the “latency in the response to doxorubicin” value worked out at 20 h. In addition, the “death rate during the first 20 hrs of treatment” value in the test on MDA-MB-231 cells (TLAG = 10 hrs, 3D on-chip) was “remained at basal level”. In addition, the “death rate (apoptosis rate) in 10 hrs-time-intervals” value in the test with MDA-MB-231 cells (after 20 hrs of exposure, TLAG = 10 hrs, 3D on-chip, 72 h) is “more than 10%”. Moreover, the “Potential of death induction (Pdeath) increase” value in the test on MDA-MB-231 cells (during the first 2 days, remains high during the 3rd day, T̃ = 16 hr) was 3-4 fold. Further, in test [1], the “doxorubicin-dependent apoptotic increase in presence of CAFs” value was “completely impaired”.

The record behind these values is US20230289968A1, “AUTOMATED ANALYSIS OF CELL CULTURES” (Hoffmann-La Roche Inc., priority 2020, published 2023).
